According to a melting point compilation (Tetko et al.; mined from patent text by program, amines drawn as free bases though some values may be those of a salt):

Compared with CN1C(=O)CC[C@]2(C)c3ccc(-c4ccc(C(F)(F)F)cc4F)cc3CC[C@@H]12, Cc1cc(C(F)(F)F)cc(=O)n1C is higher in melting point: 72 to 79 °C for the first, 80 to 82 °C for the second.

Compared with CC1(C)OC(=C(C#N)C#N)C(C#N)=C1c1ccc(Br)cc1, CC1(C)CC(=O)Nc2cc3nc(-c4ccc(C(N)=O)cc4)[nH]c3cc21 is higher in melting point: 235 °C for the first, 317 to 319 °C for the second.

Compared with COc1ccc(Cl)cc1C(CCO)c1ccccc1 (centres undefined), COc1ccc2c(c1OC)CC1C(=O)N(Cc3ccccc3)C(=O)C21 (centres undefined) is higher in melting point: 80 °C for the first, 130 to 132 °C for the second.

First: O=c1cc(N2CCOCC2)oc2cc(OCc3ccccc3)ccc12
Second: O=c1cc(-c2ccccc2)oc2cccc(OCCCCCCI)c12
The melting point of the first is higher: 170 to 172 °C for the first, 166 to 168 °C for the second.

C=C(C)C(=O)Oc1ccc(N(C)S(C)(=O)=O)cc1 and CCCCOc1ccc2c(c1)C(NS(C)(=O)=O)CC(C)(C)O2 (centres undefined) cannot be ordered by melting point: 126 to 127 °C for the first, 123 to 127 °C for the second.

CCOC(=O)CS(=O)(=O)N(Cc1ccc(Cl)cc1)c1ccccc1CC(=O)OC and CCOC(=O)Cc1nc2ccccc2n1-c1ccccc1 cannot be ordered by melting point: 86 to 88 °C for the first, 87 to 89 °C for the second.

First: COc1ccc(COCc2cccc(C(=O)O)c2)cc1OC1CC2CCC1C2 (centres undefined)
Second: COc1ccc(/C=C(\C#N)c2ccccc2[N+](=O)[O-])cc1OC1CCCC1
The melting point of the first is lower: 77 to 79 °C for the first, 95.5 to 97 °C for the second.

First: CC1c2ccccc2-c2sc(Br)cc2N1S(=O)(=O)c1ccc(O)cc1 (centres undefined)
Second: CC(C)(C)c1ccc(S(=O)(=O)N2c3ccc(F)cc3CC2C(=O)NCCc2ccccc2)cc1 (centres undefined)
The melting point of the first is higher: 209 to 211 °C for the first, 168 to 172 °C for the second.

First: CCOC(=O)c1c(Cn2cnnc2)nc2cc3c(cc2c1-c1ccc(OC)c(OC)c1)OCCO3
Second: COc1ccc(OC)c(S(=O)(=O)n2c(CCCC(=O)O)cc3cc(Cl)ccc32)c1
The melting point of the first is higher: 237 to 239 °C for the first, 201 to 209 °C for the second.

First: COCCNC(=O)c1nc2cc(NC(=O)c3c(C(=O)N4CCC4)cnn3C)ccn2n1
Second: O=C(c1cc(Cc2c[nH]cn2)ccc1O)N1CCCC1
The melting point of the first is higher: 159 to 161 °C for the first, 96 to 98 °C for the second.

First: CCCc1cc(N2CCC(NCC(O)c3cnc4ccccc4c3)CC2)nc2sc(C(N)=O)c(N)c12 (centres undefined)
Second: Nc1c(F)c(N2Cc3cccc(Cl)c3C2)c(F)c2c1c(=O)c(C(=O)O)cn2C1CC1
The melting point of the first is lower: 213 to 216 °C for the first, greater than 280 °C for the second.

First: Clc1cc2c(cc1Cn1c(C3OCCO3)nc(Br)c1Br)OCO2
Second: CN[C@@H]1COc2cc(Cl)cc(-c3ccc(Cl)cc3Cl)c2O1
The melting point of the first is higher: 188 °C for the first, 140 °C for the second.

First: c1cc(N2CCCCC2)ccc1OC12CC3CC(CC(C3)C1)C2
Second: COc1ccc(CCNC(=O)C23CC4CC(CC(C4)C2)C3)cc1OC
The melting point of the first is lower: 72 to 73.5 °C for the first, 132 to 133 °C for the second.

First: CSc1nccc(-c2cc(C)ccc2N)n1
Second: Cc1ccc2c(c1)C(=O)N(Nc1ccccc1)C2=O
The melting point of the first is lower: 120 to 123 °C for the first, 168 to 170 °C for the second.

First: CCOC(=O)CCn1cnc2c(=O)[nH]cnc21
Second: CCOC(=O)c1c(Cl)c2cscc2[nH]c1=O
The melting point of the first is higher: 197 to 200 °C for the first, 157 °C for the second.

First: CC(=O)CC(=S)Nc1ccccc1
Second: OC1CSC(Sc2ccccc2)C(O)C1O (centres undefined)
The melting point of the first is lower: 125 °C for the first, 150 to 151 °C for the second.

First: OC1CSC(Oc2cccc(-c3cccs3)c2)C(O)C1O (centres undefined)
Second: C(=NC1CCCCC1)c1cccc(Oc2ccccc2)c1
The melting point of the first is higher: 165 to 166 °C for the first, 72 to 74 °C for the second.

COCC1(OP(=O)(O)O)CCN(c2c(F)cc(N3C[C@H](CNC(C)=O)OC3=O)cc2F)CC1 and Cc1cccc(CC2CCN(C(=O)C(=O)Nc3ccc4[nH]c(=O)oc4c3)CC2)c1 cannot be ordered by melting point: greater than 140 °C for the first, 204 to 208 °C for the second.

First: CCCCCCCN(CC(c1ccccc1)c1ccccc1)C(=O)Nc1ccc(F)cc1F
Second: CSc1ccc(CN2CCC(=O)C(C(c3ccccc3)c3ccccc3)C2)cc1 (centres undefined)
The melting point of the first is lower: 76 to 78 °C for the first, 126 to 128 °C for the second.

Compared with CNC(=O)C(C#N)C(=O)Nc1ccc(C(F)(F)F)cc1 (centres undefined), COC(=O)c1ccc(C(F)(F)F)cc1NC(C)=O is lower in melting point: 184 to 186 °C for the first, 86 to 87 °C for the second.

First: CC(C)(C)c1csc(-c2nc(Cl)c(Cl)[nH]2)n1
Second: CC(C)(C)OC(=O)c1nc(-c2ccccc2)[nH]c1C1CCCCC1
The melting point of the first is lower: 157 to 158 °C for the first, 222 to 223 °C for the second.

First: CCOCCn1c(CN2CCN(Cc3ccccc3)CC2C)nc2cccnc21 (centres undefined)
Second: Cc1nc2c(N)nc3ccccc3c2n1CCOCCCc1ccccc1
The melting point of the first is lower: 91.2 °C for the first, 130 to 131 °C for the second.

First: CCOC(=O)NN=C(C)c1ccccn1
Second: CC(=O)C(Cl)=NNc1ccc(C)cc1
The melting point of the first is lower: 113 °C for the first, 141 to 143 °C for the second.

First: Clc1ccc(C2=NNCC2)cc1
Second: C=CC(C)(C)C(=O)C(Oc1ccc(Cl)cc1)n1ccnc1 (centres undefined)
The melting point of the first is higher: 90 to 100 °C for the first, 72 to 74 °C for the second.

First: CCCc1c(OCC2CO2)ccc(C(C)=O)c1O (centres undefined)
Second: CCOC(=O)c1nc2ccc(Cl)nn2c1C
The melting point of the first is lower: 53 to 55 °C for the first, 170 to 171 °C for the second.

First: Cc1ccc(S(=O)(=O)OCC2Cc3cc(Cl)cc(OS(=O)(=O)C(F)(F)F)c3O2)cc1 (centres undefined)
Second: COC(=O)Cc1cc(Oc2nn(C)c(C(F)(F)F)c2Cl)ccc1[N+](=O)[O-]
The melting point of the first is lower: 55 to 57 °C for the first, 112 to 115 °C for the second.

Compared with Cc1noc(NS(=O)(=O)c2cc(F)ccc2F)c1Br, Cc1cc(Br)cc(C(=O)Nc2ccc(F)c(C)n2)n1 is higher in melting point: 123 to 125 °C for the first, 182 °C for the second.

First: CCCn1cc(-c2nc(C#N)c(N)nc2-c2ccccc2)ccc1=O
Second: CN1C(=O)CC(=O)N(c2ccccc2)c2ccccc21
The melting point of the first is higher: 180 to 183 °C for the first, 144 to 146 °C for the second.

First: CC(/C=C/[C@H]1C[C@H]1c1ccc2c(c1)C(C)(C)CCC2(C)C)=C\C(=O)O (racemic)
Second: COC(=O)c1ccc(-c2ccc(-c3ccccc3)c(-c3ccc4c(c3)C(C)(C)CCC4(C)C)c2)cc1C
The melting point of the first is lower: 93 to 96 °C for the first, 130 to 132 °C for the second.

First: CCOC(=O)C=C(C)C=CC=C(C)C=Cc1c(C)cc(C)c(Cl)c1C
Second: CNC(=O)NC1CC(C)(C)Cc2cc(C)cc(C)c21 (centres undefined)
The melting point of the first is lower: 84 to 85 °C for the first, 196 to 197 °C for the second.

Compared with COC(=O)[C@@H]1CCCN1S(=O)(=O)c1ccc(Cl)c(COc2cccc3ccc(C)nc23)c1Cl, CCC(OC(=O)COC)c1ccc(Cl)c2nc3n(c12)CCCN3c1ccc(Cl)cc1Cl (centres undefined) is higher in melting point: 136 °C for the first, 156 to 158 °C for the second.

First: Nc1ncnc2c1cnn2C1OC(CO)C(O)C1O (centres undefined)
Second: OC1CCN(c2nnc(Cl)c3ccccc23)CC1
The melting point of the first is higher: 253 °C for the first, 139 to 142 °C for the second.

Going from O=C(O)c1cc(C(F)(F)F)cc([N+](=O)[O-])c1Cl to CC(Cc1cccc(C(F)(F)F)c1)N(CC(=O)O)Cc1ccccc1 (centres undefined), the melting point falls from 173 °C to 80 °C.

First: COc1ccc(Nc2nc(Cl)nc(OCC3CCCCC3)n2)cc1Cl
Second: COc1ccc(Nc2nc(NC3CC3)nc(NC3CC3)n2)cc1F
The melting point of the first is higher: 114 °C for the first, 91 to 92 °C for the second.

Compared with O=C(NCCO)/C(=C/c1ccc(OC(F)(F)F)cc1)NC(=O)c1ccc(Oc2ccc(C(F)(F)F)cc2)cc1, O=C(O)c1ccc(CNC(=O)C2Cc3ccccc3N2S(=O)(=O)c2ccc(-c3ccc(F)cc3Cl)cc2)cc1 (centres undefined) is higher in melting point: 84 to 86 °C for the first, 111 to 124 °C for the second.

First: CCCC(CCC)NC(=O)c1ccc2oc(CCl)nc2c1
Second: CCCCc1oc2ccc([N+](=O)[O-])cc2c1C(=O)c1ccc(OCCBr)cc1
The melting point of the first is higher: 108 to 109 °C for the first, 81 °C for the second.

First: O=C(CC(=O)OCc1ccc([N+](=O)[O-])cc1)CC1CC(=O)N1 (centres undefined)
Second: O=C(NC(=O)c1ccccc1)NC1CCN(Cc2ccccc2)CC1
The melting point of the first is lower: 50 to 52 °C for the first, 179 to 180 °C for the second.

First: CCOC(=O)CNC(=O)CC(=O)CCl
Second: COC(=O)CC[C@H](NC(=O)OC(C)(C)C)C(=O)O
The melting point of the first is higher: 96 to 97 °C for the first, 74 to 77 °C for the second.

Compared with CN(C)CCCCC1CCCCN1C(=O)N1c2ccccc2C(=O)Nc2cccnc21 (centres undefined), Cc1c(SCc2ccco2)ccnc1CSc1nc2ccccc2n1CCN(C)C is lower in melting point: 145 to 147 °C for the first, 87 to 89 °C for the second.

First: CN1CCC(c2cccc3ccc(N)cc23)CC1
Second: O=c1nc(C2CC2)sc2ccccc12
The melting point of the first is higher: 170 to 171 °C for the first, 120 °C for the second.

Compared with CN1C[C@H](O)C[C@H]1C(N)=O, O=C(O)CN1CCOCC1 is higher in melting point: 138 to 140 °C for the first, 169 to 170 °C for the second.

First: Cc1ccc(C(N)(c2ccc3c(c2)C(c2cccc(Cl)c2)Nc2nnnn2-3)c2cncn2C)cc1 (centres undefined)
Second: Oc1ccc(C2(c3ccc(O)cc3)CCC(c3ccccc3)CC2)cc1
The melting point of the first is lower: 140 °C for the first, 262 to 263 °C for the second.

First: CSC1NC(=O)N(c2ccc(C)cc2)C(=O)N1N=C(C)C (centres undefined)
Second: CN1C(=O)N(CCCC(NS(=O)(=O)c2ccc(-c3ccc(Cl)cc3)cc2)C(=O)O)C(=O)C1(C)C (centres undefined)
The melting point of the first is higher: 170 to 173 °C for the first, 68 to 71 °C for the second.

First: CCOc1nc(F)cc2nc(=S)[nH]n12
Second: COc1cc2cncnc2cc1OC
The melting point of the first is lower: 78 to 82 °C for the first, 235 to 237 °C for the second.

Compared with CN1NC(=O)CC1c1ccccc1 (centres undefined), CO/C=C(/C(=O)OC)c1ccccc1CSc1nc2ccccc2s1 is lower in melting point: 160 to 161 °C for the first, 77 to 78 °C for the second.

First: CCOc1noc2c1CN(C(=O)OC)CC2
Second: CC(=Cc1c[nH]c2ccc3c(c12)CCCO3)[N+](=O)[O-]
The melting point of the first is lower: 95 to 98 °C for the first, 246 to 247 °C for the second.

First: COc1ccc2nccc(C(O)CCC3CCNCC3)c2c1 (centres undefined)
Second: O=C(C(c1ccccc1)n1cnc2[nH]ncc2c1=S)N1CCC(C2C=C(O)C=CN2)CC1 (centres undefined)
The melting point of the first is higher: 154 °C for the first, 138 to 142 °C for the second.

Compared with CC(=O)N1CCN(Cc2nc(-c3ccc4c(c3)Nc3ccccc3S4)cs2)CC1, O=C(O)COc1cccc2c1CCc1sc(SCC=Cc3ccccc3)nc1-2 is lower in melting point: 218 to 220 °C for the first, 171 to 172 °C for the second.

First: CC(=O)Oc1ccccc1C(=O)NC(Oc1ccc2ccccc2c1)C(Cl)(Cl)Cl (centres undefined)
Second: CC(C)(C)C(COC(N)=O)(NC(=O)C(=O)c1c[nH]c2cc(Br)ccc12)c1c[nH]c2ccccc12 (centres undefined)
The melting point of the first is higher: 158 to 160 °C for the first, 145 °C for the second.

Compared with CCCCC(CC)COc1cc2c3c(cccc3c1Br)C(=O)c1ccccc1-2 (centres undefined), CC(C)(C)Nc1c(NCc2ccc(F)cc2C(F)(F)F)c(=O)c1=O is higher in melting point: 85 to 88 °C for the first, 192 to 194 °C for the second.

Compared with CCOC(=O)C(C)CSCC(NC(=O)CCC(N)C(=O)O)C(=O)NCC(=O)O (centres undefined), CCOP(=O)(OCC)C(CSC(OC(C)=O)OC(=O)N1CCN(c2cc3c(cc2F)c(=O)c(C(=O)O)cn3CC)CC1)P(=O)(OCC)OCC (centres undefined) is lower in melting point: 193 to 194 °C for the first, 89 to 90 °C for the second.

First: O=C(OCC(Cl)(Cl)Cl)c1ccc2c(c1)C(C(Cl)(Cl)Cl)OC(C(Cl)(Cl)Cl)O2 (centres undefined)
Second: Cn1nnnc1SCCSc1ccccn1
The melting point of the first is higher: 129 to 130 °C for the first, 77 to 79.5 °C for the second.
